In paper PMC4664966, “Discovery and characterization of novel inhibitors of the sodium-coupled citrate transporter (NaCT or SLC13A5)” (Scientific Reports, 2015):
One block for each molecule: values may come before it.

What was measured:
HEK-293-derived cells = assay: Cell viability, CellTiter-glo, HEK-293-derived cells; design: species or system human; conditions: HEK-293-derived cell-based assay conditions
Experimental: For cell viability, cells are incubated with compound for 90 minutes at 37 °C. Following this incubation, 25 μL Cell Titer-Glo (Promega) was added to the plates which were then analyzed on the Envision (luminescence).

[1] = Intra-/extracellular unbound concentration ratio (Kpuu) in HEKNaCT cells; format: in vitro ADME; conditions: human, ratio of free intracellular and media concentration after 1 h incubation at 1 μM, geometric mean of 3 replicates ± SD
Experimental: (§1) kpuu values were determined by measuring total cell and media concentrations corrected for their respective fraction unbound. Detailed methods to determine intra- and extracellular concentrations of compound in the HEKNaCT cells and human hepatocytes will be the subject of a separate manuscript that is under preparation. […]
(§2) Intra- and extracellular concentrations of compound in cellular assays. kpuu values were determined by measuring total cell and media concentrations corrected for their respective […]
(§3) fraction unbound. […]
(§4) The solution was heated to reflux until the total volume was reduced to ~25 mL.
(§5) Hexane (25 mL) was added and the mixture was brought back to reflux than allowed to slowly cool to room temperature. After standing at room temperature for 16 h, the resulting suspension was filtered and dried under high vacuum to yield (S)-2-(4-(tert-butyl)phenethyl)-2-hydroxysuccinic acid (3) as a white solid. The filtrate was allowed to stand at room temperature for 4 days. The solvent evaporated to ~15 mL and large, colorless crystals formed.
(§6) X-ray analysis. Data collection was performed on a Bruker APEX diffractometer at room temperature. Data collection consisted of 3 omega scans and low angle and three at high angle; each with 0.5 step. In addition, 2 phi scans were collected to improve the quality of the […]

human hepatocytes = assay: Incorporation of [14C]-citrate into triglycerides by human hepatocytes; format: cell-based; conditions: radiolabeled citrate for 24 hours
Experimental: Incorporation of [^14C]-citrate into triglycerides by human hepatocytes was measured using the same procedure as above except cells were incubated with the radioactive citrate for 24 hours. Subsequently, the media was aspirated and 100 μL of isopropyl alcohol:THF (9:1) was added. The plate was shaken for 15 minutes, centrifuged at 3000 revolutions per minute for 5 minutes, and 50 μL of supernatant from each well was applied per TLC lane (Whatman LK6D Silica Gel Plates). Radiolabeled lipids were resolved using a 2-solvent system: Solvent 1 contained a 100:100:100:40:36 mixture of ethyl acetate:isopropyl alcohol:CHCl3:MeOH:0.25% KCl and Solvent 2 a 70:27:3 hexane:diethyl ether:acetic acid mixture. The TLC plate was dried under nitrogen for 30 minutes and [^14C]-standards added to a vacant lane. Bands were visualized and quantitated using a Molecular Dynamics’ Storm 860 PhosphorImager system following 18–36 hours exposure to a Phosphorimager screen.

[2] = Intra-/extracellular unbound concentration ratio (Kpuu) in human hepatocytes; format: in vitro ADME; conditions: cryopreserved hepatocytes, ratio of free intracellular and media concentration after 1 h incubation at 1 μM, geometric mean of 3 replicates ± SD
Experimental: as §1, §2, §3, §4, §5, §6

HEKNaCT cells [3] = assay: OCR and ECAR measurements in HEKNaCT cells incubated with citrate (Seahorse); format: cell-based, human; conditions: 30 μM compound
Experimental: HEKNaCT cells were plated at 12,000 cells/well onto a poly-d-lysine coated XF96 plate (Sigma, Seahorse Biosciences). Cells were plated in culture media containing HG DMEM, 10% FBS, 2 mM glutamine, 1 mM pyruvate, 0.5 mg/mL Geneticin, and 1% penicillin/streptomycin (Life Technologies) and incubated overnight at 37 °C. The following day, the media was changed to Seahorse Biosciences assay medium (Seahorse Biosciences) supplemented with 10 mM glucose and 2 mM pyruvate (Sigma). The plate was pre-incubated for 1 hour in a 37 °C air incubator. […]

NaDC1 (SLC13A2) = molecular target: T1, NaDC1 (SLC13A2) (Homo sapiens, UniProt Q13183); assay: Inhibition of citrate or succinate uptake in HEKNaDC1 cells; format: cell-based; conditions: compound 4: mean of 2 replicates
T1 construct: host or cells: HEK-293, transient (Fugene HD)
T1 sequence (Q13183 1-592): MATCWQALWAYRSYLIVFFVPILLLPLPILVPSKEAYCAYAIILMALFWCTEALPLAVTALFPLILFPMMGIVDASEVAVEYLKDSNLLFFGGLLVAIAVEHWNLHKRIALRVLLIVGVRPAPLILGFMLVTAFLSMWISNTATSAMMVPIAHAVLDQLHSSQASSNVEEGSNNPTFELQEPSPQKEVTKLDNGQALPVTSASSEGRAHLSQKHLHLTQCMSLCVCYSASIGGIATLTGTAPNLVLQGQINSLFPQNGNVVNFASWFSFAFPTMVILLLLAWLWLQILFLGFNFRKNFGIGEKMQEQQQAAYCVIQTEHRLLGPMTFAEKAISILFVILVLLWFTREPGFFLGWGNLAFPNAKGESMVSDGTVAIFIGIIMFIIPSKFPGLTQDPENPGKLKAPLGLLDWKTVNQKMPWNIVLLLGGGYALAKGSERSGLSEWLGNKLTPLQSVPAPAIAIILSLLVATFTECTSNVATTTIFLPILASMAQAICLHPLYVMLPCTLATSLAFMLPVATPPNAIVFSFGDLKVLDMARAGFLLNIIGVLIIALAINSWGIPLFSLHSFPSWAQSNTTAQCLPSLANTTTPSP
Excerpt: (§7) Protocols to generate the stable cell line overexpressing NaCT or cell transfection with SLC13A2 or SLC13A3 can be found in the supporting information. HEK-293 cells stably transfected with the human sodium Citrate transporter SLC13A5 or transiently transfected with the human SLC13A2 or SLC13A3 transporter were removed from the flasks with dissociation buffer and re-suspended in an equal volume of growth media (DMEM, High Glucose supplemented with 10% heat inactivated fetal bovine serum and 500 μg/ml Geneticin). For the transient transfections, Geneticin was eliminated from the media. Cell suspensions were centrifuged at 1,000 rpm for approximately 5 minutes. Resulting cell pellets were re-suspended in growth media and placed in a 37 °C water bath for approximately 10 minutes prior to a final spin at 1,000 rpm. Following this spin the resulting cell pellets were re-suspended in assay buffer, 142 mM NaCl (or 142 mM choline chloride), 5 mM KCl, 1.2 mM MgSO4, 1.5 mM CaCl, 5 mM glucose and 25 mM HEPES pH 7.4. Cell suspensions were counted and the concentration adjusted as needed with assay buffer to 2e[6] viable cells /mL. 20 μL of cell suspension were added to 384-well cyotstar-T plates followed by the addition of 5 μL of 10× concentration of compound. Cells and compound were incubated at 37 °C for approximately 30 minutes prior to the addition of 25 μL of 300 μM citric acid (16 μM radiolabeled [^14C]-citric acid and 284 μM cold citric acid) to make a 150 μM final concentration of citric acid or 21 μM [^14C]-succinic acid. After substrate addition, the uptake of radioactivity was monitored on Perkin Elmer Microbeta plate reader. Data from reads between 45–90 minutes was used to assess the ability of test compounds to inhibit the uptake of citric or succinic acid. […]
(§8) were plated, and incubated for 48 hours. Following the incubation, NaDC1 and NaDC3 assays were executed identical to the procedure for NaCT. […]
(§9) The solution was heated to reflux until the total volume was reduced to ~25 mL. […]

NaDC3 (SLC13A3) = molecular target: T2, NaDC3 (SLC13A3) (Homo sapiens, UniProt Q8WWT9); assay: Inhibition of citrate or succinate uptake in HEKNaDC3 cells; format: cell-based; conditions: compound 4: mean of 2 replicates
T2 construct: host or cells: HEK-293, transient (Fugene HD)
T2 sequence (Q8WWT9 1-602): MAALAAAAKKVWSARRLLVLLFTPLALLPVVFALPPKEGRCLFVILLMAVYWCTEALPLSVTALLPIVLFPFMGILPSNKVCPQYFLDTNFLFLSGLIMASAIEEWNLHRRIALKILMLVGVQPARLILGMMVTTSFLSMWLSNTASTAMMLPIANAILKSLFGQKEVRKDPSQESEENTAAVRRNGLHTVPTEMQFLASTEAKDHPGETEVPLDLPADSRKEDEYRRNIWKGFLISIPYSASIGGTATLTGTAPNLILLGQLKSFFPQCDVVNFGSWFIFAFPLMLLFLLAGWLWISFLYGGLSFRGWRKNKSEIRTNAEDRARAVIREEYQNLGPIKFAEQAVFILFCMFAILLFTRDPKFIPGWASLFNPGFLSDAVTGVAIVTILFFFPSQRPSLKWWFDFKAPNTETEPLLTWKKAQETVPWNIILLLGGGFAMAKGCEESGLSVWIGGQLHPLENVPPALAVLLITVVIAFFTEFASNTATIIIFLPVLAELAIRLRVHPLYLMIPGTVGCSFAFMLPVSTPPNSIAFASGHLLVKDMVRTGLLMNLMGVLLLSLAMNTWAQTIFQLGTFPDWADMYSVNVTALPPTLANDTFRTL
Excerpt: as §7, §8, §9

[4] = Stability in human hepatocytes; format: in vitro ADME; conditions: metabolically competent human hepatocytes
[5] = molecular target: T3, NaCT in cryopreserved human hepatocytes (Homo sapiens, UniProt Q86YT5); assay: Inhibition of citrate uptake in cryopreserved human hepatocytes; format: cell-based; conditions: geometric mean of at least 3 replicates
T3 construct: the transporter was in its native environment, we used cryopreserved human hepatocytes; endogenous in cells; host or cells: cryopreserved human hepatocytes
T3 sequence (Q86YT5 whole entry): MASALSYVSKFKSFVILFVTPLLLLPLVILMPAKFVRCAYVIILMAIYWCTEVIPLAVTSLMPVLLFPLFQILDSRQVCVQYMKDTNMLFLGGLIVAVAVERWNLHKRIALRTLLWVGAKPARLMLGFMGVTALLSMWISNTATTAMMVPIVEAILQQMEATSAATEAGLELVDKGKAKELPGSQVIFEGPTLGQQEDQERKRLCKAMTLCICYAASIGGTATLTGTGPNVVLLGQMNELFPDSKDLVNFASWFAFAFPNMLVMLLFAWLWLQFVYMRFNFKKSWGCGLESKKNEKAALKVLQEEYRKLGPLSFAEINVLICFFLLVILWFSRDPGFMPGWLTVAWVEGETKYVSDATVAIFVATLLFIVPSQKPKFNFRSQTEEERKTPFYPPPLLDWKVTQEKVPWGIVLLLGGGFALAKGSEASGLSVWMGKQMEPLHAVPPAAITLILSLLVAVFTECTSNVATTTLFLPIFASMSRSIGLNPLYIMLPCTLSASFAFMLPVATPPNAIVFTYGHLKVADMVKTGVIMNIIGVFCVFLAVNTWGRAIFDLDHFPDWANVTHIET

HEKNaCT cells [6] = assay: Stability in HEKNaCT cells; format: in vitro ADME, human; conditions: data not shown
[7] = Passive permeability, MDCK-LE cell monolayer; format: in vitro ADME; conditions: dog, MDCK; read-out: Papp (passive permeability)
Experimental: Passive permeability was assessed using MDCK-LE cell monolayer as described previously in Di et al., (2011)[44].

Stability in assay media = format: in vitro ADME; conditions: read-out: t1/2 in assay media
NaCT (SLC13A5) = NaCT (SLC13A5) (Homo sapiens, UniProt Q86YT5); assay: Inhibition of citrate uptake in HEKNaCT cells; format: cell-based; conditions: geometric mean of at least 3 replicates
NaCT (SLC13A5), sequence (Q86YT5 whole entry): as above
Experimental: HEK-293 cells stably transfected with the human sodium Citrate transporter SLC13A5 or transiently transfected with the human SLC13A2 or SLC13A3 transporter were removed from the flasks with dissociation buffer and re-suspended in an equal volume of growth media (DMEM, High Glucose supplemented with 10% heat inactivated fetal bovine serum and 500 μg/ml Geneticin). For the transient transfections, Geneticin was eliminated from the media. Cell suspensions were centrifuged at 1,000 rpm for approximately 5 minutes. Resulting cell pellets were re-suspended in growth media and placed in a 37 °C water bath for approximately 10 minutes prior to a final spin at 1,000 rpm. […] Cell suspensions were counted and the concentration adjusted as needed with assay buffer to 2e[6] viable cells /mL. 20 μL of cell suspension were added to 384-well cyotstar-T plates followed by the addition of 5 μL of 10× concentration of compound. […] After substrate addition, the uptake of radioactivity was monitored on Perkin Elmer Microbeta plate reader. Data from reads between 45–90 minutes was used to assess the ability of test compounds to inhibit the uptake of citric or succinic acid.

parental HEK-293 cells = assay: Whole cell binding experiments with [3H]-2, parental HEK-293 cells; design: species or system human; conditions: 75 nM
Experimental: Parental HEK-293 cells or HEK-293 cells expressing SLC13A5 were incubated with [^3H]-2 at 75 nM. See supplemental methods for additional details. […]
were plated, and incubated for 48 hours. Following the incubation, NaDC1 and NaDC3 assays were executed identical to the procedure for NaCT.
Binding experiments with [3H]-2. Parental HEK-293 cells or cells overexpressing SLC13A5 were incubated in the media with 75 nM of [3H]-2. These cells were also incubated with either 0, […]
was monitored for 2-hours. The uptake of radioactivity was monitored on Perkin Elmer Microbeta plate reader. In experiments in which cold 2 was added to the media, after 2-hours, the cells were washed 3x with PBS, and then in fresh media 100 μM cold 2 was added for 2-hours and the disappearance of radioactivity was monitored using a Perkin Elmer Microbeta […]
Intra- and extracellular concentrations of compound in cellular assays. kpuu values were determined by measuring total cell and media concentrations corrected for their respective fraction unbound. Detailed methods to determine intra- and extracellular concentrations of […]
Crystallization and X-ray analysis of (S)-2-(4-(tert-butyl)phenethyl)-2-hydroxysuccinic […]
Crystallization conditions. Ethyl acetate (50 mL) was added to (S)-2-(4-(tert-butyl)phenethyl)- 2-hydroxysuccinic acid (3) ([…], 46.2 mmol). The suspension turned to a solution upon heating. […]

SMILES: CC(C)(C)c1ccc(CCC(O)(CC(=O)O)C(=O)O)cc1 (stereo not drawn) [Compound 1]
cellular toxicity (CellTiter-glo assessment) (HEK-293-derived cells): No cellular toxicity

Kp uu at 1 h, 1 µM [1]: 0.6 ± 0.2
Kp uu at 1 h, 1 µM [2]: 0.4 ± 0.1
SMILES: CC(C)(C)c1ccc(CC[C@](O)(CC(=O)O)C(=O)O)cc1 [Compound 3, (S)-2-(4-(tert-butyl)phenethyl)-2-hydroxysuccinic acid]
label incorporation in TAG (human hepatocytes): not
effect on citrate induced increase in oxygen consumption rate (OCR) (HEKNaCT cells [3]): not
effect on citrate suppressed extracellular acidification rate (ECAR) (HEKNaCT cells [3]; citrate): not

IC50 (NaDC1 (SLC13A2)): 5.5 µM
IC50 (NaDC3 (SLC13A3)): 3.2 µM
SMILES: O=C(O)C[C@](O)(CCc1ccc(I)cc1)C(=O)O [Compound 4]

half-life [4]: 29 min
IC50 [5]: 6.76 µM
stability in HEKNaCT cells (HEKNaCT cells [6]): stable
Papp [7]: 13 ×10⁻⁶ cm/s
half-life (Stability in assay media): > 120 min
IC50 (NaCT (SLC13A5)): > 25 µM
SMILES: CCOC(=O)[C@@](O)(CCc1ccc(C(C)(C)C)cc1)CC(=O)O [Compound 5]

SMILES: [3H]C([3H])(c1ccc(C(C)(C)C)cc1)C([3H])([3H])[C@@](O)(CC(=O)O)C(=O)O [[^3H]-2]
interaction with parental HEK-293 cells (parental HEK-293 cells): no significant interaction
